These results are taken from US20060233709A1, “Method for identifying novel treatments of inflammatory disease in the gut” (priority 2003, published 2006).

For data set [1], the system named is zebrafish larvae. Nature of the data set: Suitability of fluorescent stains for in vivo gut visualisation. How it is done: In vivo labelling was achieved by rearing fish in a suspension of 0.05% quercetin (Sigma) for a minimum of 2 hours. To observe gut architecture and motility, larvae were anaesthetised larvae by immersion in 0.2 mg/ml 3-amino benzoic acid ethylester (MS222) (Sigma). Gut architecture and motility can be observed using the FITC and GFP filter sets.
Visualisation is achieved by the administration of a fluorescent dye to the embryo medium. The dye is swallowed by the fish but not readily absorbed and therefore fills the entire gut.
When viewed under a fluorescent microscope, the crypts and villi of the gut were apparent as the unstained tissue of the gut wall was highlighted in contrast to the fluorescent medium that filled the gut lumen. In addition, as staining can be performed in vivo, waves of peristalsis were observed (as indicated in the different positions of the gut wall).

The test system of data set [2] is zebrafish. Nature of the data set: DMSO tolerance of zebrafish. Conditions: in vivo. The text has this: Moreover, the inventors have discovered that zebrafish are also DMSO (dimethyl sulphoxide) tolerant. This is important as DMSO is used as a solvent to dissolve many drugs. The inventors have established that zebrafish can tolerate 1% DMSO. Thus, a candidate drug or other test substance may be dissolved in DMSO and administered to zebrafish by adding to the fish water to give a final concentration of DMSO of at least up to 1%. This is employed in various preferred aspects and embodiments of the present invention.

Data set [3] concerns zebrafish larvae with PSA-induced IBD. Description: In vivo examination of gut architecture and motility (quercetin labelling) in PSA-induced IBD. Conditions: for Rescue of the IBD phenotype: IBD induced with PSA 3 to 5 d.p.f., drug added with PSA from 5 d.p.f.
Data set [4] shares this test system. Nature of the data set: Histology (haematoxylin and eosin sections) of gut in PSA-induced IBD. Format: in vivo.
For data set [5], the system named is TNFα. Conditions: co-administration with PSA from 3 to 8 d.p.f.

Entries after “also recorded” stand apart in the source; their conditions may differ.

On to `O=c1c(O)c(-c2ccc(O)c(O)c2)oc2cc(O)cc(O)c12` [quercetin], for which the “Toxicity as in vivo gut stain” value in data set [1] is listed as “low toxicity”.

As for `C[S+](C)[O-]` [DMSO, dimethyl sulphoxide], the “Tolerated DMSO concentration in fish water” value in data set [2] was 1%.

For `Nc1ccc(O)c(C(=O)O)c1` [5-ASA, 5-amino salicylic acid], the “Rescue of the IBD phenotype” value in data set [3] is recorded as “Rescue of the IBD phenotype was seen”; in data set [3] (listed as salicylic acid), “rescue of the disease phenotype”. Besides, in data set [4] (drug given after PSA induction), the “Effect when administered after the induction of disease changes” value was “effective when administered after the induction of disease changes”. Besides, the “Prevention/rescue of disease changes when co-administered with PSA” value in data set [4] (effective dose co-administered with PSA, histological analysis) is listed as “able to prevent/rescue disease changes”.

In the case of `O=C1CCC(N2C(=O)c3ccccc3C2=O)C(=O)N1` (stereo not drawn) [thalidomide], the TNFα expression entry in data set [5] is listed as “down-regulation of TNFα expression”. The “Rescue of the in vivo disease phenotype” value in data set [3] (co-administration with PSA from 3 to 8 d.p.f., observed at 8 d.p.f.) is on record as “failed to rescue the in vivo disease phenotype; also recorded: neither rescues the disease changes”. Further, the “Rescue / improvement in gut histology” value in data set [4] (co-administration with PSA from 3 to 8 d.p.f.) was “failed to show improvement; also recorded: neither rescues the disease changes”.
